The nature of data set [1]: Solubility of individual peptides.
The next data set relates to HLA-A2.1 transgenic mice. Conditions: shown by others; cited from earlier work.
Data set [2] has as its system PBMC obtained from healthy donors and cancer patients. To be noted: primary in vitro induction in healthy donors and recall responses in cancer patients; cited from earlier work.
Data set [3] has as its system purified HLA-DR molecules. To be noted: cited from earlier work; for Number of HLA-DR molecules bound: out of 16 DR molecules tested; for IC50: high or intermediate affinity, most prevalent HLA-DR molecules, read-out: IC50 for HLA-DR binding.
The test system of data set [4] is patients with recurrent or residual cervical carcinoma. To be noted: cited from earlier work.
The test system of data set [5] is HLA-A2.1 positive target cells and wild-type peptide. As to the kind of experiment: in vitro primary CTL induction with human PBMC, read-out on peptide-loaded targets. In kind it is cell-based. The protocol: In the final step of the epitope screening process, peptides with high cross-reactive MHC binding to the HLA-A2 supertype family receptors were tested for immunogenicity. The assay is an in vitro primary CTL induction system where CD8^+ PBMC from normal subjects are stimulated in vitro, initially with peptide-loaded dendritic cells (DCs) (adherent PBMC expanded in GM-CSF and IL-4), followed by two weekly cycles of restimulation with peptide (Keogh, E., et al., J. Immunol. 167:787-796 (2001); Kawashima, I., et al., Hum. Immunol. 59:1-14 (1998)). Following expansion of naïve precursor cells, CTL activity is determined in the presence of HLA-A2.1 positive target cells and wild-type peptide, using cytotoxicity (^51Cr-release assay) or interferon-gamma (IFN-γ) production (ELISA) as the read-out. Immunogenic peptides that induced CTL were further tested for responses against the naturally processed epitope expressed on tumor cell lines. Epitopes that induced tumor-reactive CTL were considered as vaccine candidates.

A further data set deals with HLA-A2 supertype alleles. The data set can be described thus: MHC binding of motif-containing peptides to purified HLA-A2 supertype molecules. Also on record: species or system human. Conditions: all peptides bind prototype HLA-A2.1. The source says: Assays for determining binding are described in detail, e.g., in PCT publications WO 94/20127 and WO 94/03205, and other publications such Sidney et al., Current Protocols in Immunology 18.3.1 (1998); Sidney, et al., J. Immunol. 154:247 (1995); and Sette, et al., Mol. Immunol. 31:813 (1994). It should be noted that IC50 values can change, often dramatically, if the assay conditions are varied, and depending on the particular reagents used (e.g., HLA preparation, etc.). For example, excessive concentrations of HLA molecules will increase the apparent measured IC50 of a given ligand.
A computer-based motif and algorithm search was performed on the primary amino acid sequences of CEA, MAGE-2/3, HER-2/neu, and p53 to predict peptides most likely to bind the MHC molecules of the five alleles of the HLA-A2 supertype family (Tables 4 and 6) (Sette, A. and J. Sidney, Immunogenetics 50:201-212 (1999)). Motif and algorithm-positive peptides were then synthesized and tested for binding to purified HLA-A2.1, the molecule most frequently expressed in humans as well as other MHC molecules of the HLA-A2 supertype family.

Data set [6] has as its system colon cancer and NSCLC patients. Conditions: out of 12 patients who received the DC vaccine; cited from earlier work.
[7] abbreviates: Solubility, Acidic conditions (pH 2-4), 0.1% TFA, 0.15-0.1875M acetic acid, 25 mM pH 4 sodium acetate, 2-5 mg/ml.
Setting [8] is: pH 9.6, Solubility, Basic conditions (pH 9.6-13), 25 mM pH 9.6 arginine, 25 mM pH 9.6 sodium bicarbonate, 0.1M NaOH, 2-5 mg/ml.
Where [9] appears, read: Solubility, Acidic conditions (pH 2-4).
[10] abbreviates: pH 9.6, Solubility, Basic conditions (pH 9.6-13).

Where two headings read alike, the source gives them in different places. A value given as a limit tells only on which side of the number the result lay.

A word on the solubility: it is the dissolved amount per volume that the medium holds. Higher therefore signals much dissolved substance. In the case of `CC(C)C[C@H](NC(=O)[C@H](CCC(N)=O)NC(=O)[C@@H](NC(=O)[C@@H]1CCCN1C(=O)C(C)(C)NC(=O)[C@H](CC(C)C)NC(=O)[C@@H](N)CCCCN)C(C)C)C(=O)N[C@@H](Cc1c[nH]c2ccccc12)C(=O)N[C@H](C(=O)O)C(C)C` [Peptide 1323.06, KLBPVQLWV], the solubility was above 2000 µg/mL in [1] (setting [7]); above 2000 µg/mL in data set [1] (Solubility, DMSO, 2-5 mg/ml); above 2000 µg/mL in data set [1] (setting [8]). In addition, in [1], the “Solubility at physiological pH” value is “soluble”.
`CC(C)C[C@H](NC(=O)[C@@H](N)CC(C)C)C(=O)N[C@H](C(=O)N[C@@H](Cc1ccccc1)C(=O)N[C@@H](Cc1c[nH]c2ccccc12)C(=O)N[C@@H](CC(N)=O)C(=O)N1CCC[C@H]1C(=O)N1CCC[C@H]1C(=O)N[C@H](C(=O)O)C(C)C)[C@@H](C)O` [Peptide 1243.08]: the solubility was above 2000 µg/mL under setting [9]; above 2000 µg/mL (Solubility, DMSO); above 2000 µg/mL under setting [10].
On to `CC[C@H](C)[C@H](NC(=O)CNC(=O)[C@H](Cc1ccccc1)NC(=O)[C@@H](NC(=O)[C@H](CC(C)C)NC(=O)[C@H](CCC(N)=O)NC(=O)[C@H](CC(C)C)NC(=O)[C@@H](N)Cc1ccc(O)cc1)C(C)C)C(=O)N[C@@H](CCC(=O)O)C(=O)N[C@H](C(=O)O)C(C)C` [Peptide 1090.01], for which the solubility is, setting by setting: under setting [9], below 5000 µg/mL; (Solubility, DMSO) above 2000 µg/mL; under setting [10], above 2000 µg/mL. Further, the “peptide and tumor cell-reactive CTL in vivo” value with HLA-A2.1 transgenic mice is “induce peptide and tumor cell-reactive CTL in vivo”.
Regarding “p53.149: wild-type version of analog p53.149M2 used in EP-2101 (STPPPGTRV; UniProt P04637 149-157, looked up, fragment) [reference compound]”, the “specific CTL responses using PBMC” value in data set [2] is recorded as “induced specific CTL responses”.
On to “TT 830-843: tetanus toxoid (TT) peptide 830-843, a "universal" epitope (QYIKANSKFIGITE; UniProt P04958 830-843, looked up, fragment) [reference compound]”, for which the “Number of HLA-DR molecules bound” value in [3] is “seven”.
As to `CC(C)C[C@H](NC(=O)[C@H](CO)NC(=O)CNC(=O)[C@H](Cc1ccccc1)NC(=O)[C@@H](NC(=O)[C@@H](N)CCCCN)C(C)C)C(=O)N[C@@H](C)C(=O)N[C@@H](Cc1ccccc1)C(=O)N[C@H](C(=O)O)C(C)C` [Peptide 1334.10], the solubility is, setting by setting: under setting [9], above 2000 µg/mL; (Solubility, DMSO) above 2000 µg/mL; under setting [10], below 5000 µg/mL.
As usually defined, the IC50 is the concentration that gives 50% inhibition. Take `CC(C)C[C@H](NC(=O)[C@@H](NC(=O)[C@H](Cc1c[nH]c2ccccc12)NC(=O)[C@H](C)NC(=O)[C@H](C)NC(=O)[C@@H](NC(=O)[C@H](CC1CCCCC1)NC(=O)[C@H](CCCCN)NC(=O)[C@@H](C)N)C(C)C)[C@@H](C)O)C(=O)N[C@@H](CCCCN)C(=O)N[C@@H](C)C(=O)N[C@@H](C)C(=O)N[C@H](C)C(=O)O` [Peptide 965.10, aKXVAAWTLKAAa]: the IC50 in data set [3] was at most 1000 nM. For the same compound, the immunogenicity in humans result in data set [4] (co-emulsified with HPV-derived CTL epitopes) is “highly immunogenic in humans”. In addition, the safety entry in data set [4] (patients with recurrent or residual cervical carcinoma) is “Safety was, in fact, demonstrated”. In addition, the solubility in data set [1] was above 2000 µg/mL; in data set [1] (pH 9.6), below 5000 µg/mL.
Turning to `CC[C@H](C)[C@H](N)C(=O)N[C@@H](CCSC)C(=O)N[C@H](C(=O)NCC(=O)N[C@@H](Cc1c[nH]cn1)C(=O)N[C@@H](CC(C)C)C(=O)N[C@H](C(=O)NCC(=O)N[C@H](C(=O)O)C(C)C)C(C)C)[C@@H](C)CC` [Peptide 1352.02], the “CTL activity of heteroclitic analog versus wild-type peptide” value in data set [5] is reported as “strong CTL activity which exceeds that of the wild-type peptide”. In addition, the solubility in data set [1] (setting [7]) is above 2000 µg/mL; in [1] (Solubility, DMSO, 2-5 mg/ml), above 2000 µg/mL; in [1] (setting [8]), below 5000 µg/mL.
For `CC[C@H](C)[C@H](NC(=O)[C@H](CCC(=O)O)NC(=O)[C@H](C)NC(=O)[C@@H](NC(=O)[C@@H](N)CCCCN)C(C)C)C(=O)N[C@H](C(=O)N[C@@H](Cc1c[nH]cn1)C(=O)N[C@@H](Cc1ccccc1)C(=O)N[C@@H](CC(C)C)C(=O)O)C(C)C` [Peptide 1352.03], the “CTL activity of heteroclitic analog versus wild-type peptide” value in data set [5] is “strong CTL activity which exceeds that of the wild-type peptide”. Moreover, the solubility in [1] (setting [7]) was above 2000 µg/mL; in data set [1] (Solubility, DMSO, 2-5 mg/ml), above 2000 µg/mL; in [1] (setting [8]) it was above 2000 µg/mL. Further, in data set [1], the “Solubility at physiological pH” value is recorded as “soluble”.
As for aKXVAAWTLKAAa-NH2, in data set [3], the IC50 is at most 1000 nM and the “Number of HLA-DR molecules bound” value is listed as 15.
In the case of `CSCC[C@H](NC(=O)[C@@H](N)CO)C(=O)N1CCC[C@H]1C(=O)N1CCC[C@H]1C(=O)N1CCC[C@H]1C(=O)NCC(=O)N[C@H](C(=O)N[C@@H](CCCNC(=N)N)C(=O)N[C@H](C(=O)O)C(C)C)[C@@H](C)O` [Peptide 1295.03], in the data set on HLA-A2.1 transgenic mice, the “peptide and tumor cell-reactive CTL in vivo” value is “induce peptide and tumor cell-reactive CTL in vivo”. Moreover, the solubility in data set [1] (setting [7]) was above 2000 µg/mL; in data set [1] (Solubility, DMSO, 2-5 mg/ml), above 2000 µg/mL; in data set [1] (setting [8]), above 2000 µg/mL. For the same compound, the “Solubility at physiological pH” value in [1] is “soluble”.
Take `CC(C)C[C@H](NC(=O)[C@H](CC(C)C)NC(=O)[C@@H](N)CCCNC(=N)N)C(=O)N[C@@H](CCC(N)=O)C(=O)N[C@@H](CCC(=O)O)C(=O)N[C@H](C(=O)N[C@@H](CCC(=O)O)C(=O)N[C@@H](CC(C)C)C(=O)N[C@H](C(=O)O)C(C)C)[C@@H](C)O` [Peptide 1013.08]: the solubility reads like this: (Solubility, DMSO) above 2000 µg/mL; under setting [10], above 2000 µg/mL. Further, in data set [2], the “specific CTL responses using PBMC” value is reported as “induced specific CTL responses”.
Turning to `CC(C)C[C@H](NC(=O)[C@H](CC(N)=O)NC(=O)[C@H](CC(C)C)NC(=O)[C@H](CC(=O)O)NC(=O)[C@H](C)NC(=O)CNC(=O)[C@H](CO)NC(=O)[C@H](CC(C)C)NC(=O)[C@@H](N)Cc1ccc(O)cc1)C(=O)O` [Peptide 1350.01], the “No. A2 Alleles Crossbound” value in the data set on HLA-A2 supertype alleles was determined as 3. Besides, the clinical responders entry in data set [6] was “five”. For the same compound, the solubility in data set [1] (setting [7]) was above 2000 µg/mL; in data set [1] (Solubility, DMSO, 2-5 mg/ml), above 2000 µg/mL; in data set [1] (setting [8]) it was above 2000 µg/mL. Besides, the “Solubility at physiological pH” value in data set [1] is reported as “soluble”.

The values are drawn from patent publication US9394350B2, “HLA-A2 tumor associated antigen peptides and compositions” (OSE PHARMA INTERNATIONAL SA, priority 2003, dated 2016).
